In PubChem BioAssay (NCI):
“And” between values parts separate entries of the source, which are not always exact repeats. Equal values may be shown once.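 Exposure lasted 48 hours, with cells grown in 96-well plates and compounds tested at five concentrations. GI50 = concentration required for 50% inhibition of growth. TGI denotes the concentration required for complete inhibition of growth.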

What was measured:
Test in all cases: NCI tumour cell line growth inhibition, 48 h
DLD-1 colon = system: DLD-1 colon
DMS 114 small cell lung = system: DMS 114 small cell lung
DMS 273 small cell lung = system: DMS 273 small cell lung
HOP-18 NSCLC = system: HOP-18 NSCLC
KM20L2 colon = system: KM20L2 colon
P388/ADR leukemia = system: P388/ADR leukemia
SN12K1 renal = system: SN12K1 renal
SNB-78 CNS = system: SNB-78 CNS
XF 498 CNS = system: XF 498 CNS
LXFL 529 NSCLC = system: LXFL 529 NSCLC
RXF-631 renal = system: RXF-631 renal

| SMILES | GI50 (DLD-1 colon) | TGI (DLD-1 colon) | GI50 (DMS 114 small cell lung) | TGI (DMS 114 small cell lung) | GI50 (DMS 273 small cell lung) | TGI (DMS 273 small cell lung) | GI50 (HOP-18 NSCLC) | TGI (HOP-18 NSCLC) | GI50 (KM20L2 colon) | TGI (KM20L2 colon) | GI50 (P388/ADR leukemia) | TGI (P388/ADR leukemia) | GI50 (SN12K1 renal) | TGI (SN12K1 renal) | GI50 (SNB-78 CNS) | TGI (SNB-78 CNS) | GI50 (XF 498 CNS) | TGI (XF 498 CNS) | TGI (LXFL 529 NSCLC) | TGI (RXF-631 renal) |
| --- | --- | --- | --- | --- | --- | --- | --- | --- | --- | --- | --- | --- | --- | --- | --- | --- | --- | --- | --- | --- |
| O=[Se](=O)c1ccccc1.O=[Se](=O)c1ccccc1.[Cu] | 18.9 µM | 40.5 µM | 6.77 µM | 14.9 µM | 20.4 µM | 38.3 µM | 23.4 µM | 41.1 µM | 18.3 µM | 35.1 µM | 3.99 µM | 24.4 µM | 7.41 µM | 17.6 µM | 12.4 µM | 17.1 µM | 15.5 µM | 28.9 µM |  |  |
| O=C1NC2(CCCCC2)C2CCCCCC12 (stereo not drawn) |  | > 100 µM |  | > 100 µM |  |  |  |  |  | > 100 µM |  |  |  |  |  | > 100 µM |  | > 100 µM | > 100 µM | > 100 µM |
| N#C[S-].[Nd+3].c1ccc(-c2ccccn2)nc1.c1ccc(-c2ccccn2)nc1.c1ccc(-c2ccccn2)nc1 | 3.45 µM | > 100 µM | 15.7 µM | 67.1 µM | 3.23 µM | 19.5 µM |  |  | 2.38 µM | 6.08 µM |  |  |  |  | 94.2 µM | > 100 µM |  |  |  |  |
| Cc1cccc(C2=NC(C)(C)C(C)(C)N=C2c2cccc(C)n2)n1 |  | > 100 µM |  | > 100 µM |  | > 100 µM |  | > 100 µM |  | > 100 µM |  |  |  |  |  | > 100 µM |  | > 100 µM | > 100 µM | > 100 µM |
| O=C1Nc2cc([N+](=O)[O-])ccc2NC1/C(=N\Nc1ccccc1)C(O)c1cccc([N+](=O)[O-])c1 (stereo not drawn) |  | > 100 µM |  | > 100 µM |  | > 100 µM |  |  |  | > 100 µM |  |  |  |  |  | > 100 µM |  | > 100 µM | > 100 µM | > 100 µM |
| NC(=O)C#CC(N)=O | 26.5 µM and 22.2 µM and 62.5 µM | 87.5 µM and 68.3 µM and > 100 µM | 24.4 µM and 38.3 µM and > 100 µM | 71.5 µM and 125 µM and > 100 µM | 23.5 µM and 30.5 µM and > 100 µM | 73.1 µM and 106 µM and > 100 µM |  | 43.5 µM and 33.2 µM |  |  |  | 875 µM | 14.8 µM | 27.4 µM and 26.7 µM | 22.5 µM and 121 µM | 72.3 µM and 202 µM and > 100 µM |  |  | > 100 µM | > 100 µM |
| O=C1c2c(nc3ccccc3c2-c2ccccc2)CN1Nc1ccccn1 |  | > 100 µM |  | > 76.1 µM |  | > 100 µM |  |  |  |  |  |  |  |  |  | > 42.3 µM |  | > 100 µM | > 100 µM | 50.7 µM |
| Cc1cccc(NC(=O)C(=O)C(C(=O)c2ccccc2F)C2OC(=O)c3ccccc32)c1Cl (stereo not drawn) |  | > 100 µM |  | 53 µM |  | > 100 µM |  |  |  | 88.5 µM |  |  |  |  |  | > 100 µM |  | > 100 µM | > 100 µM |  |
| Cc1cc(S(=O)(=O)O)c(NC(=O)C(=O)C2C=CCS2(=O)=O)cc1Cl (stereo not drawn) |  | > 100 µM |  | > 100 µM |  | > 100 µM |  | > 100 µM |  | > 100 µM |  |  |  |  |  | > 100 µM |  | > 100 µM | > 100 µM |  |
| C/C(=N\NC(N)=S)C(CN(CC(C)C)CC(C)C)C(=O)Nc1ccc(C)cc1C (stereo not drawn) |  | > 100 µM |  | > 100 µM |  | > 100 µM |  | > 100 µM |  | > 100 µM |  |  |  |  |  | > 100 µM |  | > 100 µM | > 100 µM |  |
| CC(=O)O[C@]12CCCC1C1(O)C(O)CCCC12 (stereo partly drawn) |  |  |  | > 100 µM |  | > 100 µM |  | > 100 µM |  | > 100 µM |  |  |  |  |  | > 100 µM |  | > 100 µM | > 100 µM |  |
